In publication PMC6193938, “Characterization of a novel AICARFT inhibitor which potently elevates ZMP and has anti-tumor activity in murine models” (Scientific Reports, 2018):

Assays:
[1] = tested on: P70S6K T389 phosphorylation in NCI-H460; assay: Western analysis after overnight treatment in tissue culture; assay type: cell-based, human; conditions: 0 to 20 μM, RPMI media
Procedure: (§1) The levels of total actin, AMPKα and P70S6K are also shown. […] Full images and the croppings used in this figure are shown in Supplemental Figures S4–S13.
(§2) Antibodies were purchased as follows: pAMPK Thr172 (Cell Signaling #2535), p-p70S6 Thr389 (Cell Signaling #9205), total p70S6 (Cell Signaling #2708), total AMPKα (Cell Signaling #2793) and Actin (Sigma #A5441). Frozen tumor samples were lysed with 500 µL ice cold lysis buffer plus Halt protease inhibitor (ThermoFisher #78430) using a Power Gen 125 tissue grinder (Fisher Scientific). Western blots were run as described in the supplemental material.
(§3) Western Blots: Lysis buffer is 0.01 mg/mL Leupeptin, 0.01 mg/mL Trypsin-Chymotrypsin, 0.01 mg/mL TPCK, 0.1 mg/mL Aprotinin, 60 mM β-Gly PO4, 1% Triton-100, 25 mM Tris pH 7.5, 2.5 µM Na2Pyrophosphate, 150 mM NaCl, 0.76 mg/mL TAME, 6.2 mg/mL PNPP, 0.8 mg/mL Benzamidine, 0.2 mg/mL Na3V04, 0.42 mg/mL NaF, 0.5 mg/mL PMSF or PEFA, 1 mM DTT, 15 mM EDTA pH 8.0, 5 mM EGTA pH 8.0, 1 µM Okadaic acid, and 1 µM microcystine. RNA and DNA were degraded by addition of Benzonase (Novagen) with a 30 min incubation on ice. Lysates were cleared by centrifugation at 4 °C for 10 min at 16,000 x g. Protein content was measured using Pierce BCA protein assay kit (Thermo Scientific). Twenty ug of total protein was resolved on a 4-20% Tris HCl Criterion XT precast gel (BioRad) at 100 V for 90 minutes. Transfer electrophoresed proteins to a 0.2 µm nitrocellulose membrane using Trans Blot Turbo System (BioRad). Block membranes for 1 hr at RT in Odyssey blocking buffer (LiCor). Probe overnight 4°C for primary antibodies. Wash blots 3 x 5 min in 20 mL PBS-0.1% Tween-20.

[2] = tested on: AMPK T172 phosphorylation in MDA-MB-231met2; assay: as above; assay type: cell-based, human; conditions: 0 to 20 μM, RPMI media
Procedure: as §1, §2, §3

[3] = tested on: P70S6K T389 phosphorylation in MDA-MB-231met2; assay: as above; assay type: cell-based, human; conditions: 0 to 20 μM, RPMI media
Procedure: as §1, §2, §3

[4] = tested on: AMPK T172 phosphorylation in NCI-H460; assay: as above; assay type: cell-based, human; conditions: 0 to 20 μM, RPMI media
Procedure: as §1, §2, §3

EPHB2 = biological target: T1, EPHB2 (Homo sapiens, UniProt P29323); assay: CEREP protein kinase assay; assay type: biochemical
T1 construct: purchased CEREP Panlabs (Eurofins)
T1 sequence (P29323 19-1055): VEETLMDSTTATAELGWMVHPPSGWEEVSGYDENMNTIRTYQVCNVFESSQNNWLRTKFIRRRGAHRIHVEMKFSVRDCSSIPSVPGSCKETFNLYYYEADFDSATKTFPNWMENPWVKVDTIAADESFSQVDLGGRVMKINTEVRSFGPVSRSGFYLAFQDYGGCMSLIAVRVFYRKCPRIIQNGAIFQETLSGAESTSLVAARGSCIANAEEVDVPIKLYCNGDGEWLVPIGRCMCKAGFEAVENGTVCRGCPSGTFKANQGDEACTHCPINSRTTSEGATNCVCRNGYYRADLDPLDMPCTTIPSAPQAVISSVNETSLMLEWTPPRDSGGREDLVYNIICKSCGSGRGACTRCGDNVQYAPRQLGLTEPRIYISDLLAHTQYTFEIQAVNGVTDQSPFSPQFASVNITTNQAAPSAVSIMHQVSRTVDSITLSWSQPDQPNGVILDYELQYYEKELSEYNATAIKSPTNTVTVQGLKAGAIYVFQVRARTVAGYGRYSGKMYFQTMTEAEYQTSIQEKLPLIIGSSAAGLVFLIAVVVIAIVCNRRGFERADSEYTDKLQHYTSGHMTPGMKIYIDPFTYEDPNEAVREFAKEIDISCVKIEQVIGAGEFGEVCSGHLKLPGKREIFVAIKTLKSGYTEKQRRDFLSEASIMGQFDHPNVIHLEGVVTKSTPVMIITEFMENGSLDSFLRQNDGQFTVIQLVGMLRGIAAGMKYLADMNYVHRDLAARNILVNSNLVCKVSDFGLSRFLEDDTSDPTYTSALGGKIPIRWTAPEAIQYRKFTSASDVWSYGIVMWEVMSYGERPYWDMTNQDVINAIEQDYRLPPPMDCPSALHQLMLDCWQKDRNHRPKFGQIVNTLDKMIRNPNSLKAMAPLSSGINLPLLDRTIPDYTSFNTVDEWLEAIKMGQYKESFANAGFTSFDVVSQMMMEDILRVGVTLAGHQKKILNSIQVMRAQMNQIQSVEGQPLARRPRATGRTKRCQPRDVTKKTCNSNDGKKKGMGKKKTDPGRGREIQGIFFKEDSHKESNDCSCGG

NEK2 = biological target: T2, NEK2 (Homo sapiens, UniProt P51955); assay: CEREP protein kinase assay; assay type: biochemical
T2 construct: purchased CEREP Panlabs (Eurofins)
T2 sequence (P51955 1-445): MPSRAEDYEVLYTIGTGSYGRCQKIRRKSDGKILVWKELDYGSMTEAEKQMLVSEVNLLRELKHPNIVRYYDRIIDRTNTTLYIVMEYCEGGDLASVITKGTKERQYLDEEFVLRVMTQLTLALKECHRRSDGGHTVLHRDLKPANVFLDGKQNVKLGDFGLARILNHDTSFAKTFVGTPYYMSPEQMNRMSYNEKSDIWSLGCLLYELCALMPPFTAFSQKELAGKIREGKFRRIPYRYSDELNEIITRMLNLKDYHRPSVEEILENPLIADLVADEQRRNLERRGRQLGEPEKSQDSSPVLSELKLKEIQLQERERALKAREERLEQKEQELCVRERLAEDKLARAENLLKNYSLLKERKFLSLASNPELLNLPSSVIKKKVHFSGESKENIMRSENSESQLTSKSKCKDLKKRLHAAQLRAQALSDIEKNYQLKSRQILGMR

RON = biological target: T3, RON (Homo sapiens, UniProt Q04912); assay: CEREP protein kinase assay; assay type: biochemical
T3 construct: purchased CEREP Panlabs (Eurofins)
T3 sequence (Q04912 25-1400): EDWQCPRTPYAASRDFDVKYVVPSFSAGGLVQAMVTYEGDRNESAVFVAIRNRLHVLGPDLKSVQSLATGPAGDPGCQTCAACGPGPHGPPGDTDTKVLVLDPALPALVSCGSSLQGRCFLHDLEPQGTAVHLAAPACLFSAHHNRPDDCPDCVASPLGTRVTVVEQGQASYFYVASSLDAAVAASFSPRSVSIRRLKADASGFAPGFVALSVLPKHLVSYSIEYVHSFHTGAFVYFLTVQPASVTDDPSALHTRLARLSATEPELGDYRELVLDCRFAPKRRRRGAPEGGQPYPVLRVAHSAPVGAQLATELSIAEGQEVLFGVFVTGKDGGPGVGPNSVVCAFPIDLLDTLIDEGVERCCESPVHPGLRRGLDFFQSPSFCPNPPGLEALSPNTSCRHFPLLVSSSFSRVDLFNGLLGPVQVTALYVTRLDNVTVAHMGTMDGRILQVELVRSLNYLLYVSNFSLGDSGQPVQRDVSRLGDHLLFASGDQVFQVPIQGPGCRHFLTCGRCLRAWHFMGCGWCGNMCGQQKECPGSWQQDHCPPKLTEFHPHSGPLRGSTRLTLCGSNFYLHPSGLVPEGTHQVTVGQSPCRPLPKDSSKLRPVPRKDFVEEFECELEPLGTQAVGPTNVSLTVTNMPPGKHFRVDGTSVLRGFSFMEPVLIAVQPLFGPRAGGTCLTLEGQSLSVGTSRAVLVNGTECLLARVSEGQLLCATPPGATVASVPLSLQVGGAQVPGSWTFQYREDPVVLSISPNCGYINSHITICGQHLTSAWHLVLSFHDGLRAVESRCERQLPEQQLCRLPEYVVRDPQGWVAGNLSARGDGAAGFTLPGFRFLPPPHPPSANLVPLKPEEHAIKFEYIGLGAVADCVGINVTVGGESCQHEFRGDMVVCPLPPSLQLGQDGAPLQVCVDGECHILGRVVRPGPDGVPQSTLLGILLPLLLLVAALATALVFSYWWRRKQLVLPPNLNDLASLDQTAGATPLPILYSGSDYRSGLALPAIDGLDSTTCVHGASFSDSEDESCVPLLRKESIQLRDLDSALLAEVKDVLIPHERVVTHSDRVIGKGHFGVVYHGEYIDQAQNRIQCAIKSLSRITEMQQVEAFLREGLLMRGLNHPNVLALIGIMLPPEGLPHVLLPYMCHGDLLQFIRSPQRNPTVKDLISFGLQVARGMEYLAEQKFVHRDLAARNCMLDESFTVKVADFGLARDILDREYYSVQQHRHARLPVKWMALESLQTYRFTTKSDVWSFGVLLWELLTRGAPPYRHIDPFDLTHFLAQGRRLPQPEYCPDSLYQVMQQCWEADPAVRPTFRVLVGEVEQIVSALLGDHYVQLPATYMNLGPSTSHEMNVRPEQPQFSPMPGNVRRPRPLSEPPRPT

## O=c1[nH]ccc2cc(F)c(NS(=O)(=O)c3ccc(N4CC[C@@H](O)C4)s3)cc12 [LSN3213128, N-(6-Fluoro-1-oxo-1,2-dihydroisoquinolin-7-yl)-5-[(3R)-3-hydroxypyrrolidin-1-yl]thiophene-2-sulfonamide]
[1]
  phosphorylation of P70S6K T389: inhibits the phosphorylation
[2]
  AMPK T172 phosphorylation: expected increase
[3]
  P70S6K T389 phosphorylation: corresponding decrease
[4]
  phosphorylated AMPK T172: not increased
EPHB2; @ 0.2 uM
  inhibition at 0.2 µM: -14.3%
EPHB2; @ 2 uM
  inhibition at 2 µM: 8.96%
EPHB2; @ 20 uM
  inhibition at 20 µM: 12%
NEK2; @ 0.2 uM
  inhibition at 0.2 µM: -9.52%
NEK2; @ 2 uM
  inhibition at 2 µM: 5.24%
NEK2; @ 20 uM
  inhibition at 20 µM: -6.75%
RON; @ 0.2 uM
  inhibition at 0.2 µM: -17.2%
RON; @ 2 uM
  inhibition at 2 µM: -11.8%
RON; @ 20 uM
  inhibition at 20 µM: 33.9%
